For data set [1], the system named is male SD rats. The experiment in a line: in vivo. The following applies: one animal per row, observed 24 hours. The method in brief: (§1)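 Male SD rats (200-230 g) given single tail-vein injections, descending doses from 480 µg/Kg to 30 µg/Kg. Toxic response, mortality and time of death recorded; acute toxicity level preliminarily set from doses without mortality.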

A short description of a further data set: in vivo. The following applies: male, SD, rat, in vivo, iv. The method in brief:
as §1

The test system of data set [2] is rat model of pMACO. Nature of the data set: Grip strength test in rat model of pMACO. The data set is classed as in vivo, SD rats.
For data set [3], the system named is rat model of pMACO. Nature of the data set: Foot fault test in rat model of pMACO. It counts as in vivo, SD rats. The note with it: for Foot fault Analysis Mean of 7D: percentage of foot faults at 7D; for Foot fault Analysis Mean of 7D / Foot fault Analysis Mean of 24h: IRL1620 5 µg/Kg, administered 3 times (2, 4, 6 hours after modeling); for Foot fault Analysis Mean of 7D / Foot fault Analysis Mean of 24h / Foot fault Analysis Mean of Pretest: BX34 7 µg/Kg, BX48 5 µg/Kg; for Foot fault Analysis Mean of 24h: percentage of foot faults at 24h; for Foot fault Analysis Mean of Pretest: percentage of foot faults, pretest (baseline before administration), groups IRL1620 5 µg/Kg, 3 times. From the text: Male SD rats weighing 280-300 g were used and acclimated for at least 3 days. Focal cerebral ischemia was induced by middle cerebral artery occlusion with a suture method under isoflurane anesthesia. The animals were placed in a secure supine position, and a midline incision was made to expose the right common carotid artery, external carotid artery, and internal carotid artery. A 4.0 monofilament nylon suture was advanced from the external carotid artery toward the internal carotid artery lumen until resistance was felt ( ~ 20 mm), indicating middle cerebral artery occlusion. The nylon filament was allowed to stay in place to create a permanent model of focal cerebral ischemia. Successfully modeled rats were randomly assigned to four groups: a solvent (normal saline) group (n=10), a 7 µg/Kg BX-34 group (n=10), a 5 µg/Kg BX-48 group (n=10), and a 5 µg/Kg IRL1620 group (n=10). Each group was administered once at 2 hours, 4 hours, and 6 hours, respectively, after modeling, for a total of three administrations. Grip strength was measured before administration and at 24 hours and on D3 and D7 after administration. A rotarod test and a foot fault test were performed before administration and at 24 hours and day 7 after administration. During the rotarod test, time and distance were recorded, and ratios of the measurement at 24 hours and the measurement at D7 to the pretest measurement were used as analysis indicators. The specific method for the foot fault test was as follows. The rats were placed on an elevated grid floor (29×29 cm, grid opening: 3 cm^2) for 2 minutes, and the number of foot faults (when a forelimb fell through the grid) and the total steps were recorded. % Foot fault = (the number of forelimb faults/the total number of forelimb steps) × 100.

Data set [4] relates to male SD rats. The note with it: one animal per row, observed 48 hours. How it is done:
In an experiment about acute toxicity of subcutaneous administration, male SD rats weighing 200-230 g were dosed in a range between 60 µg/Kg and 960 µg/Kg. Observation was made for 48 hours after subcutaneous administration. Toxic response and mortality of the rats were preliminarily observed, and time of death and doses without mortality were recorded. The level of acute toxicity of the polypeptides was preliminarily determined based on the doses without mortality.

The subject of the next data set is SD rats. How it is done:
Male SD rats were anesthetized with isoflurane, and their neck hairs were shaved. A midline incision was made on the neck to expose the trachea. A ventilator and anesthesia machine for small animals were turned on, with concentration of an anesthetic gas set to 1.2, and its exit channel connected to an inlet of the ventilator. Tidal volume of the ventilator was set to 2 mL, the respiratory rate was 90 breaths/minute, and the respiratory ratio was 1:2. An outlet end of the ventilator was connected to a plastic hose, which was inserted into the rat's airway.
A machine and a software of a biological signal data acquisition and analysis system were turned on. One end of a data acquisition plate was connected to the plastic hose, and the other end was connected to a collector valve connected with a 1-mL syringe. The syringe was filled with heparinized saline, which was injected into the data acquisition plate to expel the air in the entire space until the heparinized saline flowed out from the other end of the plastic hose. The right common carotid arteries of the rats were isolated. A dead knot was made at the distal end and a slipknot at the proximal end of a right common carotid artery. A 1/2-sized incision was made in the artery between the knot with a microscissor, and the plastic hose with heparinized saline was inserted into the incision and fixed to prevent back-and-forth movement. The initial value of the blood pressure was set to zero with the zero-adjustment valve of the biological signal data acquisition and analysis system. The slipknot at the proximal end of the common carotid artery was untied, and real-time blood pressure data of the animal appeared on the software. […] The dosages of IRL1620, BX34, and BX229 were 5 µg/Kg, 42 µg/kg, and 6.6 µg/Kg, respectively.

Setting [5] is: intravenous (tail vein) 30 µg/Kg.
Where [6] appears, read: intravenous (tail vein) 60 µg/Kg.
Setting [7] is: intravenous (tail vein) 120 µg/Kg.
The mark [8] stands for this setting: pMACO rats, 3 administrations (2, 4, 6 h after modeling), IRL1620 5µg/Kg, BX34 7µg/Kg, BX48 5µg/Kg.
The mark [9] stands for this setting: SD rats, tail vein, IRL620 5 µg/Kg, BX34 42 µg/Kg, BX229 6.6 µg/Kg.
[10] abbreviates: intravenous, IRL1620 5 µg/Kg, BX34 42 µg/Kg, BX229 6.6 µg/Kg.

“Also recorded” adds a separate entry of the source. Like-named read-outs stand apart in the source and are kept apart here. Numbered stars: 1 amine (or outer) side, 2 acyl side, 3 side chain; on linkers, the order of the positions; unused ones are H or OH. Side chains are listed from the residue outwards. Peptide text beside a SMILES is read from it. * marks the point of attachment. C18 diacid = O=C(O)CCCCCCCCCCCCCCCCC(=O)*; γGlu = O=C(O)[C@H](CCC(=O)[*:2])N[*:1]; Fumaroyl = O=C(O)/C=C/C(=O)*; Suc = O=C(CCC(=O)[*:2])[*:1]; Lauroyl = CCCCCCCCCCCC(=O)*; AEEA = NCCOCCOCC(=O)O

As for `CCCCCCCCCCCC(=O)N[C@@H](CCC(=O)NCCOCCOCC(=O)NCCCC[C@H](NC(=O)[C@H](Cc1c[nH]cn1)NC(=O)[C@H](C)NC(=O)[C@H](Cc1ccccc1)NC(=O)[C@H](Cc1ccc(O)cc1)NC(=O)[C@@H](NC(=O)[C@H](C)NC(=O)[C@H](CCC(=O)O)NC(=O)[C@H](CCC(=O)O)NC(=O)[C@H](CC(=O)O)NC(=O)/C=C/C(=O)O)C(C)C)C(=O)N[C@@H](CC(=O)O)C(=O)N[C@H](C(=O)N[C@H](C(=O)N[C@@H](Cc1c[nH]c2ccccc12)C(=O)O)[C@@H](C)CC)[C@@H](C)CC)C(=O)O` [BX-225] (Fumaroyl-DEEAVYFAHK([AEEA-γGlu-Lauroyl])DIIW-OH), the “Observations of Animal Status” value in the data set with male SD rats [1] (setting [5]) was “No obvious abnormalities observed within 24 hours”; with male SD rats [1] (setting [6]), “Lay still and showed no willingness to move at 7 minutes; became active at 10 minutes; signs of pain were observed in the animal through pupil observation; no pain at 23 minutes; also recorded: Lay still and showed no willingness to move at 7 minutes; became active at 10 minutes; signs of pain were observed in the animal through pupil observation; developed rapid breathing at 35 minutes; died at 70 minutes”; with male SD rats [1] (setting [7]) it was “Breathing became slightly faster at 2 minutes, showed no willingness to move, had slow reactions, and breathing speeded up at 25 minutes; the symptoms basically eased at 1.5 hours; also recorded: Showed no willingness to move, had slow reactions, and breathing became slightly faster at 10 minutes; the symptoms lasted for nearly 1 hour; the symptoms basically eased at 1 hour and 10 minutes; also recorded: Developed abdominal breathing and lay still at 27 minutes; died of difficulty in breathing at 40 minutes; also recorded: Developed abdominal breathing and lay still at 25 minutes; died of difficulty in breathing at 32 minutes”; with male SD rats [1] (intravenous (tail vein) 240 µg/Kg) it was “Developed rapid breathing at 4 minutes, collapsed at 5 minutes, eyes turned dull at 7 minutes; died at 12 minutes”. In “in vivo”, this molecule showed an MTD at 24 h of 0.03 mg/kg.
In the case of `CC[C@H](C)[C@H](NC(=O)[C@H](CC(=O)O)NC(=O)[C@H](CC(C)C)NC(=O)[C@H](Cc1c[nH]cn1)NC(=O)[C@H](C)NC(=O)[C@H](Cc1ccccc1)NC(=O)[C@H](Cc1ccc(O)cc1)NC(=O)[C@@H](NC(=O)[C@H](C)NC(=O)[C@H](CCC(=O)O)NC(=O)[C@H](CCC(=O)O)NC(=O)[C@H](CC(=O)O)NC(=O)CCC(=O)O)C(C)C)C(=O)N[C@H](C(=O)N[C@@H](Cc1c[nH]c2ccccc12)C(=O)O)[C@@H](C)CC` [IRL1620, reference compound] (Suc-DEEAVYFAHLDIIW-OH), in the data set with rat model of pMACO [2] (setting [8]), the “Grip Strength Test 3D/pre” value is 57%±11%, the “Grip Strength Test 7D/pre” value turned out to be 61%+13% and the “Grip Strength Test 24h/pre” value was 47% ±27%. In the data set on rat model of pMACO [3], the “Foot fault Analysis Mean of 7D” value turned out to be 4.3%+3.14%, the “Foot fault Analysis Mean of 24h” value is 14.2%±17.61% and the “Foot fault Analysis Mean of Pretest” value was 1%±2%. In addition, the “Observations of Animal Status” value with male SD rats [4] (subcutaneous 60 µg/Kg) is on record as “Developed rapid breathing at 25 minutes after administration, recovered after 15 minutes; also recorded: Developed rapid breathing at 26 minutes after administration, recovered after 16 minutes; also recorded: Developed rapid breathing at 30 minutes after administration, recovered after 17 minutes; also recorded: Developed rapid breathing at 25 minutes after administration, recovered after 16 minutes”. For the same molecule, the “Observations of Animal Status” value in the data set on male SD rats [4] (subcutaneous 120 µg/Kg) was “Developed rapid breathing at 27 minutes after administration, gradually recovered after 50 minutes; also recorded: Developed rapid breathing at 26 minutes after administration and lasted for 23 minutes; then died; also recorded: Developed rapid breathing at 26 minutes after administration, gradually recovered after 50 minutes; also recorded: Developed rapid breathing at 28 minutes after administration, gradually recovered after 50 minutes”. The “Observations of Animal Status” value in the data set on male SD rats [1] (setting [5]) was “Developed rapid breathing at 13 minutes, showed no willingness to move at 30 minutes; recovered at 1.5 hours; also recorded: Developed rapid breathing at 15 minutes, showed no willingness to move at 25 minutes; recovered at 1.5 hours; also recorded: Lay still at 25 minutes, showed no willingness to move at 1.5 hours; found dead the next morning (estimated to have died during the night)”. In addition, the “Observations of Animal Status” value with male SD rats [1] (setting [6]) is “Developed rapid breathing at 3 minutes; died at 8 minutes”. In the data set on male SD rats [1] (setting [7]), the “Observations of Animal Status” value was “Developed rapid breathing and the body turned purple at 5 minutes; died at 9 minutes”. This molecule came in with an MTD at 24 h in “in vivo” of 0.03 mg/kg. Moreover, in the data set with SD rats (setting [9]), the “maximum extent of decrease in blood pressure, of the baseline blood pressure” value is recorded as 16.1%±2.4% and the “time to the lowest blood pressure” value was not above 2 min. In the data set with SD rats (setting [10]), the “Maximum percentage of blood pressure reduction relative to baseline blood pressure (n = 3)” value is recorded as 16.1%±2.4% and the “Time from baseline blood pressure to the lowest blood pressure” value is given as “Less than 2 mins”.
In the case of `CC[C@H](C)[C@H](NC(=O)[C@H](CC(=O)O)NC(=O)[C@H](CCCCNC(=O)COCCOCCNC(=O)COCCOCCNC(=O)CC[C@H](NC(=O)CCCCCCCCCCCCCCCCC(=O)O)C(=O)O)NC(=O)[C@H](Cc1c[nH]cn1)NC(=O)[C@H](C)NC(=O)[C@H](Cc1ccccc1)NC(=O)[C@H](Cc1ccc(O)cc1)NC(=O)[C@@H](NC(=O)[C@H](C)NC(=O)[C@H](CCC(=O)O)NC(=O)[C@H](CCC(=O)O)NC(=O)[C@H](CC(=O)O)NC(=O)/C=C/C(=O)O)C(C)C)C(=O)N[C@H](C(=O)N[C@@H](Cc1c[nH]c2ccccc12)C(=O)O)[C@@H](C)CC` [BX-34] (Fumaroyl-DEEAVYFAHK([AEEA-AEEA-γGlu-C18 diacid])DIIW-OH), in the data set on rat model of pMACO [2] (rat, in vivo), the “Grip Strength Test 3D/pre” value was 63% ±14%, the “Grip Strength Test 7D/pre” value was 67% ±19% and the “Grip Strength Test 24h/pre” value is reported as 40% ±24%. Moreover, the “percentages of foot faults compared with the saline group and the IRL1620 group” value in the data set on rat model of pMACO [3] (pMACO rats, BX-34 7 µg/Kg, BX-48 5 µg/Kg, three administrations) is recorded as “lower”. In the data set with rat model of pMACO [3], the “Foot fault Analysis Mean of 7D” value was 3.46%±2.92%, the “Foot fault Analysis Mean of 24h” value is given as 10.64%±15.53% and the “Foot fault Analysis Mean of Pretest” value is listed as 1%±1%. Besides, in the data set with SD rats (rat, in vivo), the “maximum extent of decrease in blood pressure, of the baseline blood pressure” value is 9.5%±1.7% and the “time to the lowest blood pressure” value lay in the range of 20 to 35 min. In the data set with SD rats (rat, in vivo, iv), the “Maximum percentage of blood pressure reduction relative to baseline blood pressure (n = 3)” value is 9.5%±1.7% and the “Time from baseline blood pressure to the lowest blood pressure” value lay within 20 to 35 min.

The values above are taken from patent EP4702986A1, “POLYPEPTIDE AND USE THEREOF” (Biocells (Beijing) Biotech Co., Ltd., priority 2023, dated 2024).
